Columns and labels:
Format in all cases: binding
[1] = target: kinases (KINOMEscan panel) (Homo sapiens, UniProt Q9H422); conditions: kinase HIPK3; NEW KINOMEscan
[2] = target: kinases (KINOMEscan panel) (Homo sapiens, UniProt Q04759); conditions: kinase PRKCQ; NEW KINOMEscan
[3] = target: T1, kinases (KINOMEscan panel) (Homo sapiens, UniProt O14976); conditions: kinase GAK; NEW KINOMEscan
T1 sequence (O14976 1-1311): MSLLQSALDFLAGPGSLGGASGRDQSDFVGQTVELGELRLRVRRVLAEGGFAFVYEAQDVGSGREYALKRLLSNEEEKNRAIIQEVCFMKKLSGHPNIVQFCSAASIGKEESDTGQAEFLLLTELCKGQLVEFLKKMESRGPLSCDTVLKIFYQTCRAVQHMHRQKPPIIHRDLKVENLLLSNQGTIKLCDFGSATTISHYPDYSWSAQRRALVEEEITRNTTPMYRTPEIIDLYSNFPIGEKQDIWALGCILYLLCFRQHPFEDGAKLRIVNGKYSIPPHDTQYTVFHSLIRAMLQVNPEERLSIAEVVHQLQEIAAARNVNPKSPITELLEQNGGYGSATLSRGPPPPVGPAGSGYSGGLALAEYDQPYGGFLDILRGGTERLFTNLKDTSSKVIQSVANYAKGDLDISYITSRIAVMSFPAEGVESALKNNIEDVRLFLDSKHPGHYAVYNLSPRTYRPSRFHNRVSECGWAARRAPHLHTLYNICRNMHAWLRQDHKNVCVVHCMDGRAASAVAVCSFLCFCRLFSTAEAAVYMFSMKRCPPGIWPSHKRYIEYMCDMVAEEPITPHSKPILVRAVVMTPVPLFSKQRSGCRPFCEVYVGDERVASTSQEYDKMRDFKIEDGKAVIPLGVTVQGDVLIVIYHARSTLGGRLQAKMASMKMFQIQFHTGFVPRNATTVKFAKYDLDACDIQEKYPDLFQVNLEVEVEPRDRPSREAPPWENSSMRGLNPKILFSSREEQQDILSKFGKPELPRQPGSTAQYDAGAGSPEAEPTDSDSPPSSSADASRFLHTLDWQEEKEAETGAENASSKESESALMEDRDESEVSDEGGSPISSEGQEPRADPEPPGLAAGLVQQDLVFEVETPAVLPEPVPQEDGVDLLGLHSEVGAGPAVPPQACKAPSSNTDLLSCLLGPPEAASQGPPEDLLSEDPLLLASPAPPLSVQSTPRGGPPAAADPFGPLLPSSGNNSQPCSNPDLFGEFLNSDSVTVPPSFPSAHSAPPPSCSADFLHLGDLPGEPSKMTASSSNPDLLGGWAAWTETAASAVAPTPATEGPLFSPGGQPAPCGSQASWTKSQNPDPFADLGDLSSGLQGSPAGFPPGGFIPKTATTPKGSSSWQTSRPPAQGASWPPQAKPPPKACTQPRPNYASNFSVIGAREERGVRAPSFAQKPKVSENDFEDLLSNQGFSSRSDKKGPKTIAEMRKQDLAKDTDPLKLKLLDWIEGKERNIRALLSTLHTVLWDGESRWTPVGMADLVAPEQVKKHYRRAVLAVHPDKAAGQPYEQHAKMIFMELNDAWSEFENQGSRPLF

[4] = target: kinases (KINOMEscan panel) (Homo sapiens, UniProt P51617); conditions: kinase IRAK1; NEW KINOMEscan
[5] = target: kinases (KINOMEscan panel) (Homo sapiens, UniProt P22455); conditions: NEW KINOMEscan
[6] = target: kinases (KINOMEscan panel) (Homo sapiens, UniProt Q96NX5); conditions: CAMK1G; NEW KINOMEscan
[7] = target: kinases (KINOMEscan panel) (Homo sapiens, UniProt Q15375); conditions: EPHA7; NEW KINOMEscan
[8] = target: T2, kinases (KINOMEscan panel) (Homo sapiens, UniProt Q92630); conditions: DYRK2; NEW KINOMEscan
T2 sequence (Q92630 1-601): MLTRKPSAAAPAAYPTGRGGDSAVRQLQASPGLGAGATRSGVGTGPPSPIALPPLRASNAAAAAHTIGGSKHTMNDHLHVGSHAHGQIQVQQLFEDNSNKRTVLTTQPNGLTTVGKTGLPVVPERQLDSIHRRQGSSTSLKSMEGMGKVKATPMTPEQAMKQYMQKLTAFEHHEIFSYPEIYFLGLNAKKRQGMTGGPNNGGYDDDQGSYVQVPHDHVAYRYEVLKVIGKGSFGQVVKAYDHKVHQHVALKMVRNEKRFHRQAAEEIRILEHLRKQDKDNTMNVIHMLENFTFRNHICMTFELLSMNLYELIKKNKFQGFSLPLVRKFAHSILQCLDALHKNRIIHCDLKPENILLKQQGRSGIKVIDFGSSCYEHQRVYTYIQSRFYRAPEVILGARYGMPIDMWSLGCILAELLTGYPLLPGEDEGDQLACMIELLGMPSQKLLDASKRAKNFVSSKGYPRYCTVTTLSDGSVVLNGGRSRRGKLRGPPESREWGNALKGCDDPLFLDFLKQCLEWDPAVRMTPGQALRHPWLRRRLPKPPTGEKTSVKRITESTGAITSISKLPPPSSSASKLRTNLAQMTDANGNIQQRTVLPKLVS

kinases (KINOMEscan panel) (Homo sapiens, UniProt Q9H422), sequence (Q9H422 whole entry): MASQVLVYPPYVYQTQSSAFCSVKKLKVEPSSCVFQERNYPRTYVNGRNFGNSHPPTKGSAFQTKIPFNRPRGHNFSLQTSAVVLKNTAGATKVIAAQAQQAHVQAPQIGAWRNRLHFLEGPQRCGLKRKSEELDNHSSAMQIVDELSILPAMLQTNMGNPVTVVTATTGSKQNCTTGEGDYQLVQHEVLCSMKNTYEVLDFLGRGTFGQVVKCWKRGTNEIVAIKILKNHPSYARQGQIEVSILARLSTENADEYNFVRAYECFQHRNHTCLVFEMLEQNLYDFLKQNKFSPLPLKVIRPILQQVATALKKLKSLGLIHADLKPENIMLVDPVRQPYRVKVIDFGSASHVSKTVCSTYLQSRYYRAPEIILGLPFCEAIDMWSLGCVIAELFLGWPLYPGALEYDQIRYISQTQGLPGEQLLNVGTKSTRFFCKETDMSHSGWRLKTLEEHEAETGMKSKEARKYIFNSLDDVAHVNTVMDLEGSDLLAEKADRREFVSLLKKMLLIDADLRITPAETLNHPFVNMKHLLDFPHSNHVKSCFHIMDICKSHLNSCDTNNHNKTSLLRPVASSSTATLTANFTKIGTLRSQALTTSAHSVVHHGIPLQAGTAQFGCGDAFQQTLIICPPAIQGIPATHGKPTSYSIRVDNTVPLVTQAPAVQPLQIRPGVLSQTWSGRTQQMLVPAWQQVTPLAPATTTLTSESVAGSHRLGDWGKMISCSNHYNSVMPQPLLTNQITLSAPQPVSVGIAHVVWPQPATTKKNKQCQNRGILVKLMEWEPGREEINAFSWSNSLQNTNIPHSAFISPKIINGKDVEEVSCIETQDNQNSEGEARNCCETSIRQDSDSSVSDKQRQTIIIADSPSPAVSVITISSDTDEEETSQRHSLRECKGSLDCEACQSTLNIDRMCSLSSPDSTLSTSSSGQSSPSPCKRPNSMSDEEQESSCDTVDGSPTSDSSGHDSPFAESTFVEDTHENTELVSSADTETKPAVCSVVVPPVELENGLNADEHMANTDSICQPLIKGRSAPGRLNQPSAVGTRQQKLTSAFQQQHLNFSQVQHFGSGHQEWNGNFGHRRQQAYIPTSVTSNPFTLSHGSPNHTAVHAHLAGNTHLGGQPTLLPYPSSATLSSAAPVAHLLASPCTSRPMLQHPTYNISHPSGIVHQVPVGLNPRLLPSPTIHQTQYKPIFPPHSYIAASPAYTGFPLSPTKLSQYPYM
kinases (KINOMEscan panel) (Homo sapiens, UniProt P51617), sequence (P51617 whole entry): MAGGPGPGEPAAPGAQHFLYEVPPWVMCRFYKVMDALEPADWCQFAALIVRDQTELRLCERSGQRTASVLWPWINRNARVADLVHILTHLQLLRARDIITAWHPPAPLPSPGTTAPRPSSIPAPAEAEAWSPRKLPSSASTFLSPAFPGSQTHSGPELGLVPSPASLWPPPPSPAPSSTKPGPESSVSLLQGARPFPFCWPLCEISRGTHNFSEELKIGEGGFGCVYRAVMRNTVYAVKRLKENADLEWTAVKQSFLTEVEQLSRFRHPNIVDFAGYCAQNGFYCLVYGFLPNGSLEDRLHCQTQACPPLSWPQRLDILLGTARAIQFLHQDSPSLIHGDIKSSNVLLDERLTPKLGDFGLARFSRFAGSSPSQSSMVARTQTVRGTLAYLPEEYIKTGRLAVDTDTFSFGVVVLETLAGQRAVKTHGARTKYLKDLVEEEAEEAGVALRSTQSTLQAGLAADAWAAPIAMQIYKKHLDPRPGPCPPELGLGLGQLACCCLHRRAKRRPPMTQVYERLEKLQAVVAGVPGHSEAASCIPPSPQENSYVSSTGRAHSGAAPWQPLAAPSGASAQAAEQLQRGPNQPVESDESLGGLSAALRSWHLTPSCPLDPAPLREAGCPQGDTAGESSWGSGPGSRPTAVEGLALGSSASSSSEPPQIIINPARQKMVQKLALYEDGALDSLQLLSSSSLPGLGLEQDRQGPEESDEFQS
kinases (KINOMEscan panel) (Homo sapiens, UniProt Q96NX5), sequence (Q96NX5 whole entry): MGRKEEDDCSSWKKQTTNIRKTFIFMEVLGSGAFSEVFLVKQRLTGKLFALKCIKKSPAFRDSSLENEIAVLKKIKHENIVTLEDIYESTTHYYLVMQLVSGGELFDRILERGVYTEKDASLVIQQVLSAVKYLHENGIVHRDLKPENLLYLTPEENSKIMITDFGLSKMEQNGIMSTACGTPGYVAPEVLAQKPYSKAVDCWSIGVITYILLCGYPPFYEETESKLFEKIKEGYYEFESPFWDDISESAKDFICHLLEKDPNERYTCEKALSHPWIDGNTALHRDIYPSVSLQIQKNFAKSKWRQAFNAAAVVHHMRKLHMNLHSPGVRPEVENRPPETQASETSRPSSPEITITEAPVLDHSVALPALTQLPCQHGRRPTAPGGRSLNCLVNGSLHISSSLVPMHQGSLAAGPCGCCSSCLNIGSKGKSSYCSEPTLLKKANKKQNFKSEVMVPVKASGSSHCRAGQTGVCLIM
kinases (KINOMEscan panel) (Homo sapiens, UniProt Q04759), sequence (Q04759 whole entry): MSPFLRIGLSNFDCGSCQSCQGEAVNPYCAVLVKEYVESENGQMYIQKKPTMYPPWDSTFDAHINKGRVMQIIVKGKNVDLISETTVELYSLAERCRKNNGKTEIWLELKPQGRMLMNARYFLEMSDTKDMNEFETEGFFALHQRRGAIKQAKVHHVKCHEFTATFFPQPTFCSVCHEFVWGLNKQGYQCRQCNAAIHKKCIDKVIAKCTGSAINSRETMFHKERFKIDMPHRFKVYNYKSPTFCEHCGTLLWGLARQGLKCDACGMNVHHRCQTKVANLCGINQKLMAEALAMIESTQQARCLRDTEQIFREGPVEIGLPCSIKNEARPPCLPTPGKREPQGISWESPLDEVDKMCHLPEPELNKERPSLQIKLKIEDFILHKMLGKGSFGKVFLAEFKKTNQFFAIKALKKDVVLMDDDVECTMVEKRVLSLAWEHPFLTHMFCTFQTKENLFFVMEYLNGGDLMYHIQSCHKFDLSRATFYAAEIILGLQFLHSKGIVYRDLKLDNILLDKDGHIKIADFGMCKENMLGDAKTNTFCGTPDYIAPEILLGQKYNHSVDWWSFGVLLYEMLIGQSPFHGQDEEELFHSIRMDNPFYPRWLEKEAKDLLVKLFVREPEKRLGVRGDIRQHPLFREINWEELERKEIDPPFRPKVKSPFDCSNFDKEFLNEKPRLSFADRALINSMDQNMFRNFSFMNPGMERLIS
kinases (KINOMEscan panel) (Homo sapiens, UniProt P22455), sequence (P22455 22-802): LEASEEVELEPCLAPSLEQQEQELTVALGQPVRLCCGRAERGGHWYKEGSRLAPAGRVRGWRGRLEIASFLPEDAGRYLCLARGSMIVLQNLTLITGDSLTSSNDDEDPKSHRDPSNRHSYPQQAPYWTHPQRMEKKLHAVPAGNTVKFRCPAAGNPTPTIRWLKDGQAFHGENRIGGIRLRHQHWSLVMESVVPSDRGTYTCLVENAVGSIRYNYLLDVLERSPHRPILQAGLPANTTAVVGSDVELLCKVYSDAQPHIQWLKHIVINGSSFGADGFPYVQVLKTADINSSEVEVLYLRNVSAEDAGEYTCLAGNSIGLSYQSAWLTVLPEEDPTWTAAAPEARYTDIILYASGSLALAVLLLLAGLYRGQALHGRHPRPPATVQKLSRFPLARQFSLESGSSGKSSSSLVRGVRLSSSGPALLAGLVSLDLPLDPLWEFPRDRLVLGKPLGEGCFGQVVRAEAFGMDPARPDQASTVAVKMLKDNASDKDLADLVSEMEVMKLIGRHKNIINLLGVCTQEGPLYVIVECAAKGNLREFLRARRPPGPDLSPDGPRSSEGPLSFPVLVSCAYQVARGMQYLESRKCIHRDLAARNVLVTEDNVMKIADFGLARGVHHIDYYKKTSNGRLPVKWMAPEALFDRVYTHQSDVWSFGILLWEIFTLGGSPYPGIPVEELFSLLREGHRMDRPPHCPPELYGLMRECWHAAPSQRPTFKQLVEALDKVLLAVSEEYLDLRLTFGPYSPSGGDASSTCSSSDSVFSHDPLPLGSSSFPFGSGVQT
kinases (KINOMEscan panel) (Homo sapiens, UniProt Q15375), sequence (Q15375 28-998): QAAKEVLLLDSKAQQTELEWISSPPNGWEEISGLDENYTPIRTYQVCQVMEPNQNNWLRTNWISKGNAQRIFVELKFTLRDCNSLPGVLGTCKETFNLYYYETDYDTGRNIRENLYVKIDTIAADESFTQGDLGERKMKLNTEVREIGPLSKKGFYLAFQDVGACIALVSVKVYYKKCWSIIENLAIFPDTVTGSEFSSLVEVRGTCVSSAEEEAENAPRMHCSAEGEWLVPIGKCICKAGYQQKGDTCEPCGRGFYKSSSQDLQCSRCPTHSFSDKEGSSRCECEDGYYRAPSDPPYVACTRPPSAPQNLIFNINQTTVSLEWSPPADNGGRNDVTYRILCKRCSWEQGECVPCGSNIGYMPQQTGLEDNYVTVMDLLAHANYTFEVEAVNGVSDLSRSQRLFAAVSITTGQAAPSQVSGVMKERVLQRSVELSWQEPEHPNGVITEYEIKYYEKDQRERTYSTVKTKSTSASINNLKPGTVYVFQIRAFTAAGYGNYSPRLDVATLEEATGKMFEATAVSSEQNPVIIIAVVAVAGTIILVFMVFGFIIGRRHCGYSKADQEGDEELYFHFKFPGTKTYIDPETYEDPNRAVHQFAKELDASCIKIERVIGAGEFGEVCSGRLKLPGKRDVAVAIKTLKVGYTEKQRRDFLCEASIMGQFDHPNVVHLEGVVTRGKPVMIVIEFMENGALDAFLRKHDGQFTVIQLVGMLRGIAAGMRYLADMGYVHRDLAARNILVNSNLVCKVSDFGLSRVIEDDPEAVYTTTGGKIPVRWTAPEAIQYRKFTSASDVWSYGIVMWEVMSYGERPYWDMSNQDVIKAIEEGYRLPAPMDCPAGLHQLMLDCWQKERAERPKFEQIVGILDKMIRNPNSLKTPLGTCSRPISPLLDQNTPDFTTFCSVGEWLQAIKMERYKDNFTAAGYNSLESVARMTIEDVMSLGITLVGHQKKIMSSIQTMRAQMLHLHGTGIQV

Structure (SMILES) | KINOMEscan HIPK3 [1] | KINOMEscan PRKCQ [2] | KINOMEscan GAK [3] | KINOMEscan IRAK1 [4] | KINOMEscan FGFR4 [5] | KINOMEscan CAMK1G [6] | KINOMEscan EPHA7 [7] | KINOMEscan DYRK2 [8]
Cc1cccc(-c2nc(Nc3ccc4nn(C)cc4c3)c3ccccc3n2)n1 [NK167] | 0 | 0 | 0 | 0 | 16 | 0 | 0 | 0
Cc1cccc(-c2nc(N(C)c3ccc4ncsc4c3)c3ccccc3n2)n1 [NK-161] | 0 | 7 | 0 | 0 | 19 | 0 | 0 | 12
